Reference: paper PMC3714282, “Pharmacometabolomics of Response to Sertraline and to Placebo in Major Depressive Disorder – Possible Role for Methoxyindole Pathway” (PLoS ONE, 2013)

Test system: serum metabolites (tryptophan, tyrosine, purine pathways, antioxidants)
Assay: LCECA metabolomic profiling of serum: change from baseline at week 1 and week 4 (all, responders, non-responders)
Assay type: in vivo, human
Description: Study participants were outpatients, 18–65 years of age, from various clinical sites across the United States. […] A complete description of the inclusion and exclusion used in this study can be found in Table S1. The study protocol was developed in accordance with the principles of the Declaration of Helsinki. All patients provided written informed consent. The study was sponsored and monitored by Pfizer, Inc. Each site's institutional review board approved and oversaw the study. The primary outcome measure was the HAMD17, used to assess depressive symptom severity. Measures were gathered at baseline, and weeks 1 and 4 of treatment at the patient's visits. Serum samples were collected using standard protocol at baseline, week 1 and week 4 of treatment at the clinic visits. Whole blood was collected in serum collection tubes and inverted 5–8 times. Serum samples were allowed to clot at room temperature for 60 minutes and then centrifuged at 1,300×g for 15 minutes. Following centrifugation supernatant was frozen at −80°C until analysis.
Samples were analyzed using a liquid chromatography electrochemical array (LCECA) platform that has been extensively validated and used in our prior studies in neurodegenerative and psychiatric disorders [30]–[34]. The method includes multiple compounds from the tyrosine, tryptophan, sulfur amino acids and purine pathways, and markers of oxidative stress and protection (for the list of metabolites and abbreviations see Table 1). Levels of 5-Methoxytryptamine (5-MTPM) were measured using a gas chromatography time-of-flight-mass spectrometry (GCTOF-MS) platform. Samples were prepared for analysis as previously described. During the sample preparation, pools were created from equal volumes of subaliquots of all samples. Concentrations of metabolites in the individual samples were expressed as a percentage of the concentration of those metabolites in the averaged pool.
Data preprocessing: We first removed the metabolites that have more than 40% missing values. […] Principal components analysis (PCA; SIMCA-P+12.0) was used to identify outliers. The analysis was performed for each time point. […] Subjects with ≥3 standard deviations away from the center of data cloud within two principal components (PC's) scores scatter plot were considered outliers and were removed from further analysis.
These analyses were conducted separately for the sertraline and placebo groups. Between groups t-tests were used to compare baseline to one week and baseline to four week change scores between the sertraline and placebo groups.
Signatures of response to sertraline and placebo were identified by using paired t-tests to compare week 4 metabolite levels to baseline metabolite levels in the responders and non-responders to therapy. […] These analyses were also performed to evaluate changes in ratios of individual metabolites within (e.g., 5-HT/5-HTP) and between branches of tryptophan pathway (e.g., KYN/MEL).

[1] = after four week of treatment, responders
[2] = after one week of treatment, non-responders
[3] = serum, four weeks, non-responders to sertraline
[4] = serum, four weeks, poor response to sertraline
[5] = serum, four weeks, responders to sertraline
[6] = serum, log-transformed concentration, after four weeks, sertraline group

SMILES: CN[C@H]1CC[C@@H](c2ccc(Cl)c(Cl)c2)c2ccccc21 [Sertraline, sertraline]
- Change of MHPG (average change of log-transformed concentration) [1]: -0.16
- Change of NA-5-HT (average change of log-transformed concentration) [1]: 0.071
- Change of TRP (average change of log-transformed concentration) [1]: 0.041
- Change of TRPOL (average change of log-transformed concentration) [1]: 0.068
- Change of TYR (average change of log-transformed concentration) [1]: 0.14
- Change of UA (average change of log-transformed concentration) [1]: -0.027
- Change of VMA (average change of log-transformed concentration) [1]: -0.077
- Change of XAN (average change of log-transformed concentration) [1]: -0.14
- Change of XANTH (average change of log-transformed concentration) [1]: 0.0046
- Change of 3-OHKY (average change of log-transformed concentration) [2]: -0.11
- Change of 3-OMD (average change of log-transformed concentration) [2]: -0.082
- Change of 4-HBAC (average change of log-transformed concentration) [2]: -0.44
- Change of 4-HPAC (average change of log-transformed concentration) [2]: 0.18
- Change of 4-HPLA (average change of log-transformed concentration) [2]: 0.055
- Change of 5-HIAA (average change of log-transformed concentration) [2]: -0.19
- Change of 5-HT (average change of log-transformed concentration) [2]: -0.72
- Change of 5-HTP (average change of log-transformed concentration) [2]: -0.14
- Change of 5-MTPOL (average change of log-transformed concentration) [2]: -0.027
- Change of 7-MXAN (average change of log-transformed concentration) [2]: 0.16
- Change of ATOCO (average change of log-transformed concentration) [2]: 0.084
- Change of CYS (average change of log-transformed concentration) [2]: -0.056
- Change of DIOHMAL (average change of log-transformed concentration) [2]: 0.17
- Change of DOPAC (average change of log-transformed concentration) [2]: -0.18
- Change of DTOCO (average change of log-transformed concentration) [2]: 0.024
- Change of GR (average change of log-transformed concentration) [2]: -0.47
- Change of GRMP (average change of log-transformed concentration) [2]: -0.012
- Change of GSH (average change of log-transformed concentration) [2]: -0.0084
- Change of HGA (average change of log-transformed concentration) [2]: 0.34
- Change of HVA (average change of log-transformed concentration) [2]: 0.0025
- Change of HX (average change of log-transformed concentration) [2]: -0.066
- Change of KYN (average change of log-transformed concentration) [2]: -0.11
- Change of LD (average change of log-transformed concentration) [2]: 0.053
- Change of MEL (average change of log-transformed concentration) [2]: 0.3
- Change of METH (average change of log-transformed concentration) [2]: 0.16
- Change of MHPG (average change of log-transformed concentration) [2]: -0.072
- Change of NA-5-HT (average change of log-transformed concentration) [2]: 0.027
- Change of TRP (average change of log-transformed concentration) [2]: -0.022
- Change of TRPOL (average change of log-transformed concentration) [2]: 0.0024
- Change of TYR (average change of log-transformed concentration) [2]: -0.073
- Change of UA (average change of log-transformed concentration) [2]: -0.095
- Change of VMA (average change of log-transformed concentration) [2]: 0.12
- Change of XAN (average change of log-transformed concentration) [2]: -0.18
- Change of XANTH (average change of log-transformed concentration) [2]: 0.11
- Change in 5-HT levels [3]: significantly reduced
- Change in 5-MTPOL levels [3]: not significantly changed
- Change in DIOHMAL levels [3]: significantly increased
- Change in MEL levels [3]: not significantly changed
- Change in HGA levels [4]: Significant increases
- Change in LD levels [4]: Significant increases
- Change in 4-HPAC levels [5]: significantly increased
- Change in 5-HT levels [5]: significant decrease
- Change in 5-MTPOL levels [5]: significant increases
- Change in DIOHMAL levels [5]: significantly increased
- Change in MEL levels [5]: significant increases
- Change 3-OHKY [6]: 0.044
- Change 3-OMD [6]: 0.079
- Change 4-HBAC [6]: 0.12
- Change 4-HPAC [6]: 0.26
- Change 4-HPLA [6]: 0.13
- Change 5-HIAA [6]: −0.06
